Reference: patent publication US7135305B2, “Methods for controlling the lysis of coagulated blood with apolipoprotein e4 phenotype” (priority 2000, dated 2006)

What was measured:
[1] = test system: t-PA induced clot lysis; assay: in vitro clot assay system, t-PA induced clot lysis with supplemental Apo E isoproteins (Example 3); parameters: species or system human; conditions: FIG. 4; t-PA 0 to 4 μg/ml, alone or with supplemental Apo E 9.8 μg/ml; blood of 18 volunteers
Procedure: The ability of Apo E isoproteins to modulate t-PA induced clot lysis is assessed using an in vitro clot assay system. This system uses the decrease in clot formation in the presence of t-PA to approximate the amount of clot lysis. Blood samples are obtained from 18 volunteers and divided into three Apo E genotypes (6 patients in each group): E2 (E2/E2, E2/E3, E2/E4), E3 (E3/E3) and E4 (E3/E4, E4/E4). Clot lysis in the presence of varying concentrations of t-PA (0 to 4 μg/ml), is assessed in the presence or absence of supplemental Apo E2, E3 or E4 (9.8 μg/ml) for each patient genotype. The results are expressed as EC50s, which are the effective concentrations of t-PA required to achieve 50% lysis of the clot.

[2] = test system: t-PA stimulated clot lysis in fresh human blood; assay: in vitro clot lysis measured by the amount of liquid liberated from the blood sample (Example 1); conditions: FIG. 2; individual B's blood; t-PA alone 0.5 mg/l blood; N=3
Excerpt: There are various methods for determining the function, action and or kinetics of t-PA. These include but are not limited to: measuring fibrin degradation fragments, clot lysis, clot weight, fluid evolution weight, clot times and others. Those experienced in the art will be familiar with these and other methods for assaying t-PA activity or clot degradation/formation etc. The data from this study consists of a measurement of clot dissolution or lysis by measuring the amount of liquid liberated from the blood sample. This is an index of clot lysis and the clot lysis is stimulated by t-PA.
Typically, two mls of fresh human blood are drawn and added to pre-weighed vials containing known amounts of t-PA with or without Apo E4. The blood is mixed and allowed to equilibrate for 40 minutes. The vials are centrifuged at 1 g for 15 minutes and the supernatant decanted. Clot weight and solution weight is determined and used to measure clot degradation or dissolution. Increasing supernatant volumes indicate increased clot degradation or increasing clot dissolution.

t-PA: tissue plasminogen activator, clot lysis agent
EC50, effective concentration of t-PA required to achieve 50% lysis of the clot [1]: 0.72 ± 0.19 µg/mL | level of clot lysis [2]: 2.5 g
